What was measured:
[1] = system: Estradiol E2; assay: Estradiol E2 level in blood (serum CLIA) after repeated sc PEP-1; format: in vivo, SD rats
Method: PEP-1 (peptide of SEQ ID NO: 1), lyophilized white powder, obtained according to the method mentioned in example 1 was dissolved in 0.9% of saline, considering the correction factor of PEP-1 (purity: 94.13%, content: 92.36%, correction factor: 1.15). 50 mg/mL stock solution was further diluted into 20 mg/mL, 2 mg/mL, and 1 mg/mL with 0.9% saline, and stored at 4° C. for a week until the use.
The purpose of this example is to confirm the change of sexual hormones in blood from SD rats with 7 days repeated daily administration of SEQ ID NO: 1 peptide, PEP-1. This experiment followed the Ethics Regulation of Animal Test by KAMSI Inc. (Korea Animal Medical Science Institute). In addition, this experiment, Non-GLP experiment, referred to the MFDS (Ministry of Food and Drug Safety) notification; Agent 2013-40 (5th April 2013), Principles of Good Laboratory Practice (1997).
SPF Rats (Crlj:CD(SD)) were purchased from ORIENTBio Inc. (Mokdong-ri, Buk-myeon, Gapyeong-gun, Gyeonggi-do, Republic of Korea). 75 male (6.5 weeks old and 190˜210 g) and 75 female (6.5 weeks old and 160˜180 g) rats were monitored for 4 days, and 64 of male and female rats (each) were selected for the experiment. Raising condition is as follows; 23±3° C. of temperature, […] of relative humidity, 10˜20 times/hr of number of air changes, 12 hours (8 a.m.˜8 p.m.) of lighting with 150˜300 Lux of intensity.
64 male and female […] (mentioned above) were divided into 8 groups. Administration regimen, for example, drugs, routes, dosages, and volumes were as follows:
The detailed administration regimen is as follows; once a day, twice a day and twice a week in each experimental group. Injection initiated at 10 a.m. every day, and each rat was injected at one minute intervals. Rats in Group 9, 10, 13 and 14 were injected twice a week. Administration of high dose test agent preceded that of low dose. The volume of injection was calculated using recently measured weight of rats, and it was 5 mL/kg. Subcutaneous injection was performed as follows; assistant tilted the back of rat upward, and experimenter sterilized the back of rat with 70% alcohol, followed by subcutaneous injection of test agent with 26 G syringe.
1.4 mL of blood sample (0.7 mL of serum) was collected after measurement of weight (Day 0). Next day (1 Day), 1.4 mL of blood sample (0.7 mL of serum) was collected twice after injection of test agent (4 hrs and 8 hrs after administration of test agent). […]
A CLIA (Chemi-Luminescence Immune Assay) Kit was used to analyze Testosterone, Estradiol E2, FSH (Follicle stimulating hormone), and LH (Luteinizing hormone). […]
Estradiol E2 was analyzed using the samples prepared from example 2. […] As mentioned in example 2, CLIA (Chemi-luminescence immune assay) Kit was used, following the manufacture's protocol. […]

[2] = system: RWPE-1; assay: Cell proliferation (CCK-8) in prostate epithelial cell line; format: cell-based
Method: When testosterone is injected into the body, testosterone becomes dihydrotestosterone (DHT) due to 5α-reductase, which stimulates the proliferation of prostate cells and induces benign prostatatic hyperplasia (BPH). Based on these facts, a PEP-1 (GV1001) injection experiment was performed for the inhibition of proliferation of prostatic cells in the following manner: The cell lines were mesenchymal cell lines (WPMY-1) and epithelial cell lines (RWPE-1) of prostates obtained from BPH animal models. […] Observation of changes in the proliferation was performed by suctioning a culture medium, adding 10 μL of CCK-8 solution to each well, and measuring an optical density at 450 nm for 1 hour to about 4 hours.

Sequence: EARPALLTSRLRFIPK (listed as Homo sapiens) [PEP-1, hormone secretion modulator / GnRH analog]
- Estradiol E2 level ([1]; female group, Day 1, all groups (PEP-1 and/or vehicle), baseline 20-50 pg/mL): 16 to 30 pg/mL
- Effect on Estradiol E2 level ([1]; female group, level recovered from Day 3-4): inhibited the Estradiol E2 level in the beginning
- Effect on Estradiol E2 level ([1]; male rat): does not have effect on Estradiol E2 level
- Estradiol E2 level ([1]; male rat, initial level remained same until Day 7): 15 to 20 pg/mL
- Cell proliferation (optical density at 450 nm) versus untreated cells ([2]; RWPE-1, 100 and 200 μM GV1001, no DHT): did not show a substantial difference in optical densities
- Inhibition of DHT-induced cell proliferation ([2]; RWPE-1, 100 and 200 μM GV1001 with 25 nM DHT): substantial inhibition effects on proliferation
